In a melting point compilation (Tetko et al.; mined from patent text by program, amines drawn as free bases though some values may be those of a salt):

Compound CCCCC1N=CC(CSc2ccccc2C(=O)O)(Cc2ccc(C(=O)O)c3ccccc23)N1 (centres undefined) has a melting point of 272 to 274 °C. In the case of CC(C)(C)OC(=O)Nc1cccc(C2(O)CCOCC2)c1, the melting point is reported as 140 to 142 °C. With CCOC(=O)c1c(Cn2ccccc2=O)nc2cc(OC)c(OC)cc2c1-c1ccc(OC)c(OC)c1 the melting point was 154 to 156 °C. Compound Fc1ccc(CCN2CCC(N3CCc4ccc(Br)cc43)CC2)cc1 has a melting point of 99 to 101 °C. For CN[C@@H]1CCCC[C@H]1NC (relative stereo), the melting point was 17 °C. For O=[N+]([O-])c1ccccc1-c1ccc(CBr)cc1, the melting point was 109 to 110 °C. Compound COC(=O)C1=C(C)NC(C(OC)OC)=C(C(=O)OC)C1c1cccc2c(=O)c(C)c(-c3ccccc3)oc12 (centres undefined) has a melting point of 166 to 168 °C. With CCCCCCn1c2c(c(=O)n3nc(-c4ccccc4)cc13)CN(C1CCCCC1)C2=O the melting point was 162 to 164 °C. Work on CC(C)(C)OC(=O)Nn1c(=O)cc2n(C3CC3)c3cc(N4CCN(C(=O)OC(C)(C)C)CC4)c(F)cc3n2c1=O yielded a melting point of 219 to 220 °C. In the case of COCc1ccsc1-c1nsc2ccc(-n3c(=O)cc(C(F)(F)F)n(C)c3=O)cc12, the melting point is reported as 131 to 133 °C. For CC(=O)N1Cc2nc(Cl)nc(Nc3ccc(F)c(Cl)c3)c2N=C1Cl, the melting point was 178 °C. Work on CCOC(=O)C[C@H]1O[C@H](c2ccc(O)cc2OC)c2cc(Cl)ccc2N(CC(C)(C)C)C1=O (relative stereo) yielded a melting point of 197 to 199 °C. Compound COC(=O)COc1ccc(SCc2cc(-c3ccc(Cl)cc3)on2)c2c1CCCO2 has a melting point of 131 to 133 °C. With COc1cc(Nc2c(C#N)cnc3cc(OCCN4CCN(C)CC4)c(OC)cc23)c(Cl)cc1Cl the melting point was 165 to 167 °C. Work on Nc1ncnn1C(=S)NCc1ccccc1 yielded a melting point of 157 to 158 °C. Compound COC(=O)C1=C(C)NC(C(C)(OC)OC)=C(C(=O)OC)C1c1ccccc1Cl (centres undefined) has a melting point of 145 to 146 °C. In the case of CCCc1nn(C)c2c(=O)[nH]c(Cc3ccc(-n4cnnc4)cc3)nc12, the melting point is reported as 297 to 300 °C. In the case of CN1CCN(c2cccc3ccc(Nc4ccc([N+](=O)[O-])cn4)cc23)CC1, the melting point is reported as 121 to 125 °C. In the case of COc1cccnc1CSCCN=C(NC#N)SC, the melting point is reported as 102 to 103 °C. Oc1ccc2cc(I)ccc2c1 gave a melting point of 136 to 138 °C. In the case of Nc1sc(-c2cccs2)c(CN(C2CCCCC2)C2CCCCC2)c1C(=O)c1ccc(Cl)cc1, the melting point is reported as 197 to 199 °C. For Cc1c(Br)cc(-c2ccc(=O)[nH]n2)c(O)c1Br, the melting point was over 280 °C. CC(C)CC(Sc1ccccc1)c1c(O)cc(-c2ccccc2)oc1=O (centres undefined) gave a melting point of 154 to 156 °C. CCC(CC)c1ccc(Cl)c2nc3n(c12)CCCC(=O)N3c1ccc(Cl)cc1Cl showed a melting point of 135 to 137 °C. With CCCc1ccc2nc(COc3ccc(F)c(C(N)=O)c3F)sc2c1 the melting point was 173 to 175 °C. In the case of Cc1nc(-c2cn(CC(F)(F)c3ccccc3)nn2)sc1C(=O)NCc1cccnc1, the melting point is reported as 150 to 151 °C. Compound ClC(=NNc1ccc(Cl)cc1)c1ccccc1 has a melting point of 107 to 108 °C. With CN1C(=O)C2(COc3cc4c(cc32)OCCO4)c2ccccc21 (centres undefined) the melting point was 152 to 154 °C. Compound Brc1ccc(-c2ccc(Br)cc2-c2nc3ccccc3[nH]2)c(-c2nc3ccccc3[nH]2)c1 has a melting point of 326 to 328 °C. For O=C(O)C(CCc1ccccc1)NS(=O)(=O)c1ccc2sc3ccccc3c2c1 (centres undefined), the melting point was 148 to 151 °C. O=S1c2ccc(F)cc2CCc2ccc(CO)cc21 (centres undefined) showed a melting point of 181 to 183 °C. For O=C(NCCO)c1cccc(-c2ccc3cnn(-c4ccc(Cl)cc4Cl)c3n2)c1, the melting point was 169 to 170 °C. COCn1nccc1C(=O)c1cc2c(c(Cl)c1Cl)OC(C(=O)O)O2 (centres undefined) showed a melting point of 168 to 170 °C. Work on O=C(Cn1c(-c2ccc(Cl)cc2)nc2cccnc21)Nc1ccccc1Cl yielded a melting point of 232 to 236 °C. In the case of O=C(Nc1ccc(C(=O)N2C[C@@H]3CCCN3c3ccccc32)cc1)c1ccccc1-c1ccccc1, the melting point is reported as 200 °C. With COc1ccc(Cn2cnc3c(-c4ccco4)nc(OC(C)C)nc32)cc1 the melting point was 145 to 146 °C. COc1ccc(Cn2c(=O)c(=NNc3ccccc3)c(=O)n(CC34CC5CC(CC(C5)C3)C4)c3ccccc32)cc1 gave a melting point of 170 to 188 °C. With Cc1cc2c(cc1S(N)(=O)=O)S(=O)(=O)NC(C1CCCCC1)N2 (centres undefined) the melting point was 231 to 233 °C. NS(=O)(=O)c1cccc(C(O)CO)c1 (centres undefined) showed a melting point of 170 to 171 °C. With Cn1c(C(=O)c2ccc(F)cc2)cc2cc(Br)ccc21 the melting point was 162 to 164 °C. For CC#CC(Cc1cccnc1)(C(=O)O)S(=O)(=O)c1ccc(OC)cc1 (centres undefined), the melting point was 119 to 121 °C. Compound CON(C)Cc1nc2cnc3ccccc3c2n1CC1CCOCC1 has a melting point of 142 to 144 °C. Work on Nc1nc(-c2ccc(OCC(=O)NCC3CCCCC3)cc2)cs1 yielded a melting point of 145 to 147 °C. Work on CCN(CC)CCc1cccc(Nc2ncc3c(n2)N(c2cccc(C#N)c2)C(=O)N(c2ccc(OC)cc2)C3C)c1 (centres undefined) yielded a melting point of 128 to 145 °C. In the case of Cc1c(NC(=O)NCCO)c(C)c2c(c1-c1ccccc1)OCC2c1ccc(C(C)C)cc1 (centres undefined), the melting point is reported as 152 to 155 °C. In the case of Cc1cc(-c2cc(C(F)F)nn2-c2ccc(S(C)(=O)=O)c(F)c2)ccc1-c1nccs1, the melting point is reported as 123 °C. Work on CCOC(=O)c1ncn2c1[C@@H]1CCN1C(=O)c1cc(F)ccc1-2 yielded a melting point of 226 to 227 °C. CC(C1=NC(C)(C)CO1)c1ccc(-c2ccc(F)cc2F)c(O)c1 (centres undefined) showed a melting point of 188 to 194 °C. In the case of O=C(O)c1ccc2occ(-c3ccccc3)c2c1, the melting point is reported as 205 to 209 °C. With Cc1ccc(S(=O)(=O)Nc2ccc3cccc(N4CCN(C)CC4)c3c2)cc1 the melting point was 180 °C. In the case of O=C(OCc1cc(COC(=O)c2ccc(O)c(F)c2)cc(COC(=O)c2ccc(O)c(F)c2)c1)c1ccc(O)c(F)c1, the melting point is reported as 88 °C. OCCC(c1ccccc1)C(O)(c1ccccc1)c1ccc(OCc2ccccc2)cc1 (centres undefined) showed a melting point of 109 to 115 °C. N#CNC=Nc1ccc(-c2cc[nH]n2)cc1 showed a melting point of 223 to 224 °C. Compound N#CC1CCc2cc(C(N)=O)ccc2C1 (centres undefined) has a melting point of 180 to 182 °C. For O=C(c1ccc(-c2ccccc2)cc1)C1(n2cncn2)CC1, the melting point was 154 to 155 °C. Compound CCCNc1ccc(NCc2ccc(NCCC)nc2)nc1 has a melting point of 129 to 130 °C. For CN(C)CCNC1=CC(=O)c2nc(-c3ccccc3Br)oc2C1=O, the melting point was 147 to 148 °C. Work on C=CCSc1nc2cc(C)c(C)cc2[nH]1 yielded a melting point of 119 to 120 °C. Cc1cc(Br)cnc1CCCCNC1=NS(=O)(=O)c2cc(Br)ccc21 showed a melting point of 224 to 232 °C. Work on CC(C)(C)OC(=O)Nc1ccc(-c2ccccc2)cc1[N+](=O)[O-] yielded a melting point of 119 to 121 °C. For CC(=O)NCCC1CCc2ccc3ocnc3c21 (centres undefined), the melting point was 89 to 92 °C. With O=S1(=O)c2ccccc2N(c2ccccc2)c2ccccc21 the melting point was 212 to 217 °C. Compound CC1CN(c2ccncc2Oc2ccccc2)CCN1 (centres undefined) has a melting point of 55 to 57 °C. CC(C)CC(COCC(N)=O)NC(=O)C1CCCN1C(=O)OCc1ccccc1 (centres undefined) gave a melting point of 146 to 148 °C. For COc1ccc(-c2ccncc2)cc1-c1cccc([N+](=O)[O-])c1, the melting point was 145 to 150 °C. COc1cc(OC(C)C)ccc1-c1c(OC(C)C)cccc1C(=O)O showed a melting point of 117 to 119 °C. Compound NC(=O)C1COc2c(F)cccc2O1 (centres undefined) has a melting point of 167 °C. In the case of Cc1cc(-c2ccccc2)n(-c2ccc(C(=O)O)cc2)n1, the melting point is reported as 159 to 162 °C. CC(=O)CSc1nc2ccccc2[nH]1 gave a melting point of 112 to 113 °C. For CC(C)Oc1cc(CCCOc2c(CC(=O)O)ccc3ccccc23)n(Cc2ccc(Cl)cc2Cl)n1, the melting point was 96 to 98 °C. For OCc1cc(I)ccc1O, the melting point was 105 to 110 °C. Work on COc1cc(C#N)ccc1-c1cc(-c2ccc(C#N)cc2)on1 yielded a melting point of 243 to 244 °C. Cc1nc(-c2ccc(Cl)cc2)c(CBr)o1 gave a melting point of 75 to 76 °C. With O=C(O)c1cccc(-c2ccccc2F)c1 the melting point was 147 to 148 °C. CC(C)c1nc(CN(C)C(=O)N[C@H](C(=O)O)C(C)C)cs1 gave a melting point of 82.8 to 93.8 °C. Work on COCc1ncccc1CN(CCn1ccc2occc2c1=O)Cc1ccc2c(c1)NC(=O)C(C)(C)C(=O)N2CC(C)C yielded a melting point of 149 to 151 °C. CCCCN1C(=O)CC(Sc2cc(C(C)(C)C)c(O)c(C(C)(C)C)c2)C1=O (centres undefined) gave a melting point of 80 to 85 °C. NC(=NCC(F)(F)F)Nc1ccnc(COCCO)n1 showed a melting point of 144 to 146 °C. Work on Cn1ccnc1Sc1ccc(Nc2c(C#N)cnc3cc(-c4ccc(CN5CCOCC5)cc4)ccc23)cc1Cl yielded a melting point of 148 to 150 °C. With O=C(O)c1nc(-c2ccc(Cl)cc2Cl)c(-c2ccccc2)s1 the melting point was 105 °C. Work on COC(=O)c1ccc2c(c1)Sc1ccccc1NC2=O yielded a melting point of 255 to 257 °C. Compound O=C(O)c1ccccc1SCCCOc1ccc(CCc2ccncc2)cc1 has a melting point of 151 to 153 °C. CCOCc1nc2c(N)nc3cc(-c4ccccc4)cnc3c2n1CC(C)(C)F showed a melting point of 173 to 174 °C. CCOC(=O)c1c(C)cc2nc(CO)n(-c3ccccc3C)c(=O)c2c1C showed a melting point of 130 to 132 °C. CN(C)C=C(C#N)S(=O)(=O)c1ccccc1 gave a melting point of 108 to 110 °C. O=C(O)c1cncc2cccc([N+](=O)[O-])c12 gave a melting point of 285 °C. O=S(=O)(c1ccc(Cl)cc1)C1(c2cnccc2Cl)CCCCC1 showed a melting point of 145 to 147 °C. For CC(C)c1cccc(C(C)C)c1NC(=O)Nc1cccc2ccc(Oc3ccc4nc(COc5ccc(CC6SC(=O)NC6=O)cc5)n(C)c4c3)cc12 (centres undefined), the melting point was 164 to 169 °C. For CC1=C(C)CC2C(C1)C(=O)NS2=O (centres undefined), the melting point was 135 to 137 °C. CCOc1c(C)c(N2CCN(c3ccc(C)cc3)CC2)c(C)c2c1OC(C)C2 (centres undefined) showed a melting point of 96 to 98 °C. For COc1cc2c(cc1Nc1ncc(Cl)c(Nc3ccc(N4CCOCC4)cc3OC)n1)CCN(C(=O)CN(C)C)CC2, the melting point was 84 to 101 °C. Compound NS(=O)(=O)c1cc2cc(O)ccc2s1 has a melting point of 192 to 194 °C. Work on O=Cc1cccnc1Nc1ccccc1F yielded a melting point of 94 °C. With CC(C)COP(C)(=O)CC(=O)CNC(=O)OC(C)(C)C (centres undefined) the melting point was 65 to 68 °C. Work on CCc1cc(OCc2ccccc2)ccc1C(=O)O yielded a melting point of 132 to 133 °C. Cc1ccc2sc3nncn3c2c1C showed a melting point of 226 to 228 °C. Compound CC(C)Oc1cc(NNC(=N)C(F)(F)F)c(Cl)cc1Cl has a melting point of 80.5 to 81 °C. In the case of CC(C)OC(=O)c1cn(-c2cccc(Cl)c2)cn1, the melting point is reported as 109 °C. Work on CCOC(=O)Cc1ccc(NC(=O)C(CCc2ccccc2)NS(=O)(=O)c2ccc(Br)cc2)cc1 (racemic) yielded a melting point of 130 to 131 °C.
